In patent US8653100B2 (AbbVie Inc., priority 2008, dated 2014) one finds Ki and IC50 data, which are given here for twelve molecules.

Molecules are shown by their SMILES. Counter-ions that a name gives are not always drawn.

Chain of human GlyT1c (P48067 whole entry): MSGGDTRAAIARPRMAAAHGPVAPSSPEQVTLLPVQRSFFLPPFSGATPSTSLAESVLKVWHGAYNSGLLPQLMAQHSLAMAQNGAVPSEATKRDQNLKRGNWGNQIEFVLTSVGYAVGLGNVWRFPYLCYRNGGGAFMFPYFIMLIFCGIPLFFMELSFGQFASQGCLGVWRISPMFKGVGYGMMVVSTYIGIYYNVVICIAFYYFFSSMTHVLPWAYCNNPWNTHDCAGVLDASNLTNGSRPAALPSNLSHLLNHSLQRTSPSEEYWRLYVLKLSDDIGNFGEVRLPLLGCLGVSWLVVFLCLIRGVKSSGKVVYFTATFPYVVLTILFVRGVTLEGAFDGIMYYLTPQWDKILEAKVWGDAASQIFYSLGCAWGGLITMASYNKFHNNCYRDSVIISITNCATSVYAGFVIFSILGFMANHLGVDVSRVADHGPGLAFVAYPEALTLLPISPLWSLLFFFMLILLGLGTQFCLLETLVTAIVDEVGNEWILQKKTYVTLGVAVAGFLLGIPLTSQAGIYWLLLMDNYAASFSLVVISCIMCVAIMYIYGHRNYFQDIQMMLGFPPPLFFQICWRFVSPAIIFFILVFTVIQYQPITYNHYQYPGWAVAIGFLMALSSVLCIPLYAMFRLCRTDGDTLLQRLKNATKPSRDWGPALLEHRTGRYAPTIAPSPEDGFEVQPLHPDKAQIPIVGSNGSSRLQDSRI
Chain of human GlyT1c transporter (P48067 whole entry): as above

One test addresses human GlyT1c transporter (Homo sapiens (Human), UniProt P48067). The test is described as follows: Radioligand binding assay using recombinant CHO cell membranes expressing human GlyT1. The settings on record: examples 88-204, radioligand not specified by footnote, read-out: radioligand binding Kiapp. In short, it runs like this:
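Apparent Ki values were derived by Cheng-Prusoff from one-site IC50 fits of displacement curves. Membranes from recombinant CHO cells (human GlyT1c, 50 μg/ml) were incubated 1 h at room temperature with 0.5 nM [^3H]-(R)-NPTS and test compound (1% DMSO, pH 7.5 buffer), with 10 μM Org24598 for non-specific binding, then filtered and counted.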
For the molecule `CN1CCOc2cc(S(=O)(=O)NCCOc3ccc4c(c3)C(C3(c5ccc(Cl)cc5)CCC3)NCC4)cnc21` (stereo not drawn) [Example 185, N-[2-({1-[1-(4-Chlorophenyl)cyclobutyl]-1,2,3,4-tetrahydroisoquinolin-7-yl}oxy)ethyl]-4-methyl-3,4-dihydro-2H-pyrido[3,2-b][1,4]oxazine-7-sulfonamide hydrochloride], the Ki is at most 10 µM.

Turning to `CC(=O)Nc1ncc(S(=O)(=O)NCCOc2ccc3c(c2)C(C2(c4ccc(Cl)cc4)CCC2)NCC3)s1` (stereo not drawn) [Example 188, N-(5-{[2-({1-[1-(4-Chlorophenyl)cyclobutyl]-1,2,3,4-tetrahydroisoquinolin-7-yl}oxy)ethyl]sulfamoyl}-1,3-thiazol-2-yl)acetamide hydrochloride], the Ki was at most 10 µM.

`O=S(=O)(NCCOc1ccc2c(c1)C(C1(c3ccc(Cl)cc3)CCC1)NCC2)c1ccc(N2CCOCC2)nc1` (stereo not drawn) [Example 189, N-[2-({1-[1-(4-Chlorophenyl)cyclobutyl]-1,2,3,4-tetrahydroisoquinolin-7-yl}oxy)ethyl]-6-(morpholin-4-yl)pyridine-3-sulfonamide hydrochloride]: the Ki was at most 10 µM.

For the molecule `O=S(=O)(NCCOc1ccc2c(c1)C(C1(c3ccc(Cl)cc3)CCC1)NCC2)C1CCNCC1` (stereo not drawn) [Example 190, N-[2-({1-[1-(4-Chlorophenyl)cyclobutyl]-1,2,3,4-tetrahydroisoquinolin-7-yl}oxy)ethyl]piperidine-4-sulfonamide dihydrochloride], the Ki is at most 10 µM.

Regarding `NC(=O)Nc1ccc(S(=O)(=O)NCCOc2ccc3c(c2)C(C2(c4ccc(Cl)cc4)CCC2)NCC3)cc1` (stereo not drawn) [Example 191, 4-(Carbamoylamino)-N-[2-({1-[1-(4-chlorophenyl)cyclobutyl]-1,2,3,4-tetrahydroisoquinolin-7-yl}oxy)ethyl]benzenesulfonamide hydrochloride], the Ki was at most 10 µM.

Consider `O=S(=O)(NCCOc1ccc2c(c1)C(C1(c3ccc(Cl)cc3)CCC1)NCC2)c1ncn[nH]1` (stereo not drawn) [Example 199, N-[2-({1-[1-(4-Chlorophenyl)cyclobutyl]-1,2,3,4-tetrahydroisoquinolin-7-yl}oxy)ethyl]-1H-1,2,4-triazole-5-sulfonamide], for which the Ki is at most 10 µM.

Regarding `Nc1n[nH]c(S(=O)(=O)NCCOc2ccc3c(c2)C(C2(c4ccc(Cl)cc4)CCC2)NCC3)n1` (stereo not drawn) [Example 203, 3-Amino-N-[2-({1-[1-(4-chlorophenyl)cyclobutyl]-1,2,3,4-tetrahydroisoquinolin-7-yl}oxy)ethyl]-1H-1,2,4-triazole-5-sulfonamide dihydrochloride], the Ki is at most 100 µM.

With `O=S(=O)(NCCOc1ccc2c(c1)C(C1(c3ccc(Cl)cc3)CCC1)NCC2)c1ncn[nH]1` (stereo not drawn) [Example 204, N-[2-({1-[1-(4-Chlorophenyl)cyclobutyl]-1,2,3,4-tetrahydroisoquinolin-7-yl}oxy)ethyl]-1H-1,2,4-triazole-5-sulfonamide], the Ki was at most 100 µM.

Another test addresses human GlyT1c (Homo sapiens (Human), UniProt P48067). Put plainly: [3H]-Glycine uptake into recombinant CHO cells expressing human GlyT1. Type of test: cell-based. The settings on record: hGlyT1c_5_CHO cells, 200 nM [3H]-glycine. As for the experimental part:
[^3H]-Glycine uptake into recombinant CHO cells expressing human GlyT1: Human GlyT1c expressing recombinant hGlyT1c—5_CHO cells were plated at 20,000 cells per well in 96 well Cytostar-T scintillation microplates (Amersham Biosciences) and cultured to sub-confluency for 24 h. […] The plates were placed in a Wallac Microbeta (PerkinElmer) and continuously counted by solid phase scintillation spectrometry during up to 3 hours. […] IC50 calculations were made by four-parametric logistic nonlinear regression analysis (GraphPad Prism) using determinations within the range of linear increase of [^3H]-glycine incorporation between 60 and 120 min.
For the molecule `O=C(NCCOc1ccc2c(c1)C(C1(c3ccc(Cl)cc3)CCC1)NCC2)c1ccccc1` (stereo not drawn) [Example 3, N-(2-{1-[1-(4-Chloro-phenyl)-cyclobutyl]-1,2,3,4-tetrahydro-isoquinolin-7-yloxy}-ethyl)-benzamide], the IC50 is at most 10 µM.

On to `CC(C)C(=O)NCCOc1ccc2c(c1)C(C1(c3ccc(Cl)cc3)CCC1)NCC2` (stereo not drawn) [Example 5, N-(2-{1-[1-(4-Chloro-phenyl)-cyclobutyl]-1,2,3,4-tetrahydro-isoquinolin-7-yloxy}-ethyl)-isobutyramide], for which the IC50 was at most 100 µM.

Turning to `CC(=O)NCCOc1ccc2c(c1)C(C1(c3ccc(Cl)cc3)CCC1)NCC2` (stereo not drawn) [Example 6, N-(2-{1-[1-(4-Chloro-phenyl)-cyclobutyl]-1,2,3,4-tetrahydro-isoquinolin-7-yloxy}-ethyl)-acetamide], the IC50 was at most 10 µM.

Consider `CCCNC(=O)NCCOc1ccc2c(c1)C(C1(c3ccc(Cl)cc3)CCC1)NCC2` (stereo not drawn) [Example 33, 1-(2-{1-[1-(4-Chloro-phenyl)-cyclobutyl]-1,2,3,4-tetrahydro-isoquinolin-7-yloxy}-ethyl)-3-propyl-urea hydrochloride], for which the IC50 was at most 10 µM.

As usually defined, the IC50 is the concentration at which inhibition is half-maximal.
